This is an account of results in US20180172678A1, “Dynamic Light Scattering Nanoplatform For High-Throughput Drug Screening” (Agency for Science, Technology and Research, priority 2016, published 2018).

*1 amine or outer side, *2 acyl side, *3 side chain or, on linkers, in order; H or OH if unused. Where a SMILES comes first, the peptide text is derived from it. Bridges are numbered along the chain shown (N, C = ends). Roman numbers before positions name the chains, in order. [ ]: non-standard residue; d: D form. Actinocin(9to1) = Cc1c2oc3c(C)ccc(C(=O)[*:1])c3nc-2c(C(=O)[*:2])c(N)c1=O; NMeV = CN[C@H](C(=O)O)C(C)C; Sar = CNCC(=O)O

One data set concerns wildtype p53. Briefly: DLS detection with PUMA-AuNP nano-dumbbell probes of wtp53-RE binding in anticancer drug treated PonA induced H1299 cell lysates. The settings on record: drug-treated PonA induced p53 H1299 cell lysate, versus untreated lysate. The class given is cell-based. An excerpt:
To investigate the applicability of the assay in accordance with the present embodiment to cell lysates, the H1299 Ecdysone-Inducible (EI) system for controllable and constitutive expression of p53 in H1299 cells induced by ponasterone A (PonA) was used. Referring to FIG. 7, bar graphs 700, 750 depict cell lysate analysis statistics in accordance with the present embodiment. The bar graph 700 plots size along the y-axis 704 and depicts wildtype p53 cell lysate 710 and three mutant p53 cell lysates: G245S 712, R273H 714 and R175H 716. The p53 null cell lysate (EI) 718, which serves as a negative control, gives negligible size shift from that of the PUMA-AuNP nano-dumbbell probes 720. Remarkably, clear distinctions between cell lysates with wtp53 710 and the DNA contact mutant retaining native structure (R273H) 714, the weakly stabilized mutant (G245S) 712 and the globally denatured mutant (R175H) 716 can be observed in the bar graph 700. Thus, it can be seen from the analytical results in the graph 700 that the bioassay in accordance with the present embodiment is not only sensitive and selective in the context of purified proteins but also applicable to highly complex biological samples.
Referring to FIG. 7B, the bar graph 750 plots size along the y-axis 754 and depicts detection of wildtype p53 in PonA induced p53 cell lysates 760 versus a […] cell lysate (EI) 762 (used together with the PUMA-AuNP nano-dumbbell probes 763 as a negative control), and an anticancer drug including ActD-treated 764, Dox-treated 766, and Etoposide-treated cell lysate 768.

A further data set addresses T1, mutant p53 (R273H) (Homo sapiens, UniProt P04637, R273H).
T1 construct: expressed in transfected cells; host or cells: PonA induced H1299 cells
Briefly: Mutant p53 reactivation drug screening in PonA induced H1299 cells, DLS with PUMA-AuNP nano-dumbbell probes. The class given is cell-based. Here is the method:
(§1) The ability to clearly distinguish wildtype p53 from mutant p53 in cell lysates provides the potential of the assay in accordance with the present embodiment for screening drugs that can effectively reactivate mutant p53 directly in cells and recovered the biological samples from cell lysates for detection. FIG. 9 depicts a schematic diagram 900 showing the process of mutant reactivation drug screening. Incubation of drug with live cancer cells expressing mutant p53 for reactivation is performed 910 (Step 1). The drug treated cells are then chemically lysed 920 (Step 2). The resultant cell lysates are next subjected 930 to incubation with p53-RE functionalized AuNP nano-dumbbell probes (Step 3). The obtained DLS readout allow evaluation of whether the drug applied has successfully reactivated mutant p53 to restore its binding affinity to RE. Failure in p53 reactivation will give rise to no change in the position of the DLS signal in accordance with the present embodiment.
(§2) Referring back to Step 1, drugs to be tested are first incubated 912 with live cancer cells expressing mutp53 proteins. Drugs are then uptaken 914 by the cells and interact with the mutp53 proteins. The drug treated cancer cells are subsequently lysed at Step 2 (920) to obtain crude cell lysates. These cell lysates are incubated with RE-AuNP probes and DLS is finally employed to evaluate the efficiency of mutp53 reactivation 932. If the reactivation is successful 934, the reactivated p53 protein will have a restored binding toward the RE, thus leading to increase in the diameter of the p53 RE-AuNP probes as measured 936 by DLS. In contrast, failure in reactivation 938 will not restore the binding of mutp53 protein to the RE sequence on the nano-dumbbell probes, thus no change in DLS signal is measured 940. Thus, the bioassay in accordance with the present embodiment is able to evaluate the extent of mutant reactivation by comparing the DLS signal obtained with the wtp53 binding to RE. The effective concentration of drugs for reactivation can also be determined by performing a series of concentration-dependent experiments during cell reactivation
However, the NSC drug has no effect at either low concentrations 1068 or high concentrations 1070 due to its specificity only to R175H mutant.

For another data set, the target named is T2, mutant p53 (R175H) (Homo sapiens, UniProt P04637, R175H).
T2 construct: expressed in transfected cells; host or cells: PonA induced H1299 cells
The description is as above. The class given is cell-based. On the procedure: as §1, §2
The bar graphs 1000, 1050 plot particle size along the y-axis 1004, 1054 and depict screening of mutant reactivation drugs.

The subject of a further data set is wtp53 in HCT116 cells. Briefly: DLS detection with PUMA-AuNP nano-dumbbell probes of wtp53 expression level in drug treated HCT116 cell lysates. The class given is cell-based. As to conditions: HCT116 cell lysate after Mdm2 inhibitor treatment, mixed with PUMA-AuNP probes. An excerpt:
Referring to FIG. 8, detection of wtp53 expression level in drug treated HCT116 cell lysates in accordance with the present embodiment is depicted in a bar graph 800. Besides the H1299 Ecdysone-Inducible cell lines, the effect of Mdm2 inhibitors such as nutlin 810, pm2 812, and vip82 814 on HCT116 cells was investigated. These inhibitors could inhibit Mdm2 targeted wtp53 degradation so that the wtp53 protein level in the HCT116 cell lysate will increase with the concentration of the drug applied. […] However, the extent of size increase is not as high as what was observed upon anticancer drug treatment presented. One possible explanation is that PUMA-AuNP nano-dumbbell probes are sensitive to detect activated wtp53 with enhanced binding to RE, whereas the over-expression of wtp53 may not enhance DNA binding.

The target in the next data set is p53 (Homo sapiens, UniProt P04637). Briefly: Dissociation constant (KD) of p53 for DNA promoter sequences (Table 1). The format is binding. As to conditions: concentration of p53 for 50% of the DNA to be bound; free dsDNA sequence. The text has this:
As aforestated, the p53 protein is a transcription factor which will bind specifically to DNA that contains RE sequences. In nature, wildtype p53 protein will bind to many promoter sequences and subsequently activate a wide range of genes for DNA repair, cell cycle arrest, apoptosis and its own degradation. As shown hereinabove, the bioassay in accordance with the present embodiment can be used for DNA selectivity study by conjugating different RE sequences to the AuNPs. However, it would be technically tedious to carry out conjugation for each DNA sequence and then screen for the binding affinity of a large number of promoter sequences. Therefore, a convenient competition assay which requires only one set of p53 RE-linked AuNPs has been designed in accordance with the present embodiment to evaluate the binding affinity of p53 protein to various promoter sequences listed in Table 1. This competition assay further allows the identification of the specific downstream pathway that is triggered upon p53 activation or reactivation, providing crucial information on the drug validation and outcome of the drug action.
The dissociation constant (KD) is defined as the concentration of p53 for 50% of the DNA to be bound. The lower the KD value, the stronger the binding affinity between wtp53 and the tested free DNA sequence. Thus, a smaller change in the size of the complex bound probes is expected due to the competitive binding of wtp53 between the free DNAs and conjugated RE sequences on AuNPs. […] Application of this assay to the activated or reactivated p53 proteins enables determination of which promoter sequence binds strongly and consequently identifies its downstream targets (apoptosis, cell cycle arrest or DNA repair).

Where [1] appears, read: high concentrations (++): COTI-2 1 μM, Prima-1^met 20 μM, NSC 3 μM.
Setting [2] is: low concentrations (+): NSC 0.3 μM.

`Cc1c2oc3c(C)ccc(C(=O)N[C@@H]4C(=O)N[C@H](C(C)C)C(=O)N5CCC[C@H]5C(=O)N(C)CC(=O)N(C)[C@@H](C(C)C)C(=O)O[C@@H]4C)c3nc-2c(C(=O)N[C@@H]2C(=O)N[C@H](C(C)C)C(=O)N3CCC[C@H]3C(=O)N(C)CC(=O)N(C)[C@@H](C(C)C)C(=O)O[C@@H]2C)c(N)c1=O` [ActD, actinomycin D] (I: T[dV]P[Sar][NMeV] / II: T[dV]P[Sar][NMeV]; ester I:1-I:C, II:1-II:C; linker I:N-II:N via Actinocin(9to1)): the “activation of wtp53 binding to the RE (DLS particle diameter of PUMA-AuNP probes)” value (shortened to “activation of wtp53 binding to the RE”) with wildtype p53 is given as “larger diameter”.

With `S=C(N/N=C1\CCCc2cccnc21)N1CCN(c2ccccn2)CC1` [COTI-2], the “reactivation of mutant p53 (R273H) to bind with PUMA-AuNP probes” value (shortened to “reactivation of mutant p53 (R273H)”) at mutant p53 (R273H) (setting [1]) is given as “successful reactivation”; on mutant p53 (R273H) (setting [2]), “not at low concentrations”. Besides, the “reactivation of mutant p53 (R175H) to bind with PUMA-AuNP probes” value (“reactivation of mutant p53 (R175H)” below) on mutant p53 (R175H) (setting [1]) is listed as “successful reactivation”; at mutant p53 (R175H) (setting [2]), “not at low concentrations”.

Regarding `COc1cccc2c1C(=O)c1c(O)c3c(c(O)c1C2=O)C[C@@](O)(C(=O)CO)C[C@@H]3O[C@H]1C[C@H](N)[C@H](O)[C@H](C)O1` [Dox, doxorubicin], in the data set on wildtype p53, the “activation of wtp53 binding to the RE” value is reported as “larger diameter”.

For the molecule `COc1cc([C@@H]2c3cc4c(cc3[C@@H](O[C@@H]3O[C@@H]5CO[C@@H](C)O[C@H]5[C@H](O)[C@H]3O)[C@H]3COC(=O)[C@H]23)OCO4)cc(OC)c1O` [Etoposide, etoposide], in the data set with wildtype p53, the “activation of wtp53 binding to the RE” value is “larger diameter”.

In the case of `CC(=NNC(=S)N1CC2CCC(CC2)C1)c1ccccn1` [NSC], the “reactivation of mutant p53 (R273H)” value at mutant p53 (R273H) (setting [1]) and on mutant p53 (R273H) (setting [2]) was “no effect” in each case. The “reactivation of mutant p53 (R175H)” value at mutant p53 (R175H) (setting [1]) and on mutant p53 (R175H) (setting [2]) was “shows effect” in each case.

Regarding `COCC1(CO)C(=O)C2CCN1CC2` (stereo not shown) [Prima-1^met], the “reactivation of mutant p53 (R273H)” value at mutant p53 (R273H) (setting [1]) is “successful reactivation”; on mutant p53 (R273H) (setting [2]), “not at low concentrations”. Further, the “reactivation of mutant p53 (R175H)” value is “successful reactivation” at mutant p53 (R175H) (setting [1]) and “not at low concentrations” on mutant p53 (R175H) (setting [2]).

As for `COc1ccc(C2=NC(c3ccc(Cl)cc3)C(c3ccc(Cl)cc3)N2C(=O)N2CCNC(=O)C2)c(OC(C)C)c1` (stereo not shown) [nutlin], the “wtp53 level in cell lysate detected by DLS size increase” value in the data set with wtp53 in HCT116 cells is “increased wtp53 level”.

“Bax a: p53 promoter dsDNA sequence, gene function apoptosis (sense TCATTCACAAGTTAGAGACAAGCCTAGCTC; antisense GAGCTAGGCTTGTCTCTAACTTGTGAATGA; DNA, backbone not given here)”: the Kd – broadly, a measure of binding affinity in units of concentration – with p53 came out at 73 ± 33 nM.

Consider “GADD45: p53 promoter dsDNA sequence, gene function DNA repair (sense ATCATGAACATGTCTAAGCATGCTGAGCTC; antisense GAGCTCAGCATGCTTAGACATGTTCATGAT; DNA, backbone not given here)”, for which the affinity with p53, expressed as Kd, was 7.7 ± 1.2 nM.

B1: ConA: Artificial consensus p53-binding dsDNA sequence; positive control (nucleic acid)
sense: GTTAGAGGGGCATGTCCGGGCATGTCCGGGCAGA
antisense: CAATCTCCCCGTACAGGCCCGTACAGGCCCGTCT
modifications: chemistry not given here; one strand is listed 3' to 5'
notes: positive control
B1 displayed an equilibrium dissociation constant (Kd) with p53 of 3 nM.
